Source: publication PMC6128854 (Scientific Reports, 2018)

Test system: high voltage-activated (HVA) calcium channel currents in rat DRG neurons
Type: cell-based

ω-agatoxin
further inhibition of the residual Ba2+ currents: 20%
